Columns and labels:
InsR = target: T1, InsR (Homo sapiens, UniProt P06213); test: Tyrosine kinase assay (Kinase-Glo or AlphaScreen), InsR; conditions: biochemical tyrosine kinase assay
T1 construct: 6×His- or GST-tagged kinase domain fragments of the corresponding RTKs expressed in baculovirus system; host or cells: baculovirus system
Protocol: (§1) To determine inhibition of several tyrosine kinases, such as IGF1R, InsR, Alk, TrkA and Jak2, kinase assays are conducted using either Kinase-Glo (Promega) or AlphaScreen (PerkinElmer) kinase assay platforms. The Kinase-Glo Luminescent Kinase Assay is a homogeneous method for measuring kinase activity by determining the amount of ATP remaining after a kinase reaction. The luminescent signal is proportional to the amount of ATP and inversely proportional to the amount of kinase activity. Tyrosine kinase PT66 AlphaScreen Assay is a high-sensitivity homogeneous, anti-phosphotyrosine antibody-mediated luminescent proximity method measuring, incorporation of phosphate in synthetic poly(Glu-Tyr) substrate. The kinase preparations used consist of purified recombinant, 6×His- or GST-tagged kinase domain fragments of the corresponding RTKs expressed in baculovirus system.
(§2) The IGF1R tyrosine kinase is assayed in Kinase-Glo ATP depletion assay using the synthetic polymer poly(Glu-Tyr, 4:1) (Sigma Chemicals) as a phosphoacceptor substrate. Each reaction mixture consists of a total volume of 10 μl and contains 40 ng of the enzyme, 5 μg of poly(Glu-Tyr), 10 μM of ATP and variable concentrations of test compounds. The mixtures also contain 50 mM Tris-HCl, pH 7.5; 5 mM MgCl2; 5 mM MnCl2; 2 mM DTT and 0.01% Tween 20. The reaction mixtures are incubated at 37° C. for 60 minutes and residual concentration of ATP in the mixture is determined by adding luciferase-containing Kinase-Glo (Promega) development reagent and counting luminescence levels using Fusion Universal Microplate Analyzer (PerkinElmer). Tested compounds are dissolved in dimethyl sulfoxide to a stock concentration of 10 mM and are typically evaluated in the assay at eight concentrations in 1 nM to 20 μM range, each in quadruplicate. […] IC50 values are derived by non-linear regression analysis using Prism 3.0 software (Graphpad Software). Other tyrosine kinases are assayed according to the same protocol after titrating amount of the enzyme to provide optimal signal-to-noise ratio and no more than 30% of total ATP consumption in the reaction conditions used.
(§3) The IGF1R tyrosine kinase is assayed in Phosphotyrosine (PT66 or PT 100) AlphaScreen chemiluminescent assay (PerkinElmer) according to the manufacturerer's recommendations. Each kinase reaction mixture consists of a total volume of 15 μl and contains 0.1-1 ng of the enzyme, 7 ng of biotinylated poly(Glu-Tyr) (Cis-Bio), 10 μM of ATP and variable concentrations of test compounds. The mixtures also contain 50 mM Tris-HCl, pH 7.5; 5 mM MgCl2; 5 mM MnCl2; 2 mM DTT and 0.01% Tween 20. The reaction mixtures are incubated at room temperature for 30 minutes. Ten (10) μl of the mixture of […] and donor beads (as supplied by the manufacturer) is then added to the reaction and the incubation is continued for an additional 60 minutes.

Jak2 = target: T2, Jak2 (Homo sapiens, UniProt O60674); test: Tyrosine kinase assay (Kinase-Glo or AlphaScreen), Jak2; conditions: biochemical tyrosine kinase assay
T2 construct: 6×His- or GST-tagged kinase domain fragments of the corresponding RTKs expressed in baculovirus system; host or cells: baculovirus system
T2 sequence (O60674 849-1124 limits assumed, species assumed): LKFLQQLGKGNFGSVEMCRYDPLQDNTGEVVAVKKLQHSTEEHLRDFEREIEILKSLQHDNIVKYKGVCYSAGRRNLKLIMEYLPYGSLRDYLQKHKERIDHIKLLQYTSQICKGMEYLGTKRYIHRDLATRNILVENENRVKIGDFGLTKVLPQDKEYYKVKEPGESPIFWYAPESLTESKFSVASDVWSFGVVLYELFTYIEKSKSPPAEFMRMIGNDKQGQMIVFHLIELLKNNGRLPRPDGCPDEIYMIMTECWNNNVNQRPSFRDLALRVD
Protocol: as §1, §2, §3

Ba/F3 = test: Cell proliferation inhibition, Cell Titer-Glo, Ba/F3; type: cell-based; conditions: Mus musculus, BaF3; cell proliferation assay, Ba/F3 cells
Description: (§4) IGF1R and other tyrosine kinase inhibitors can inhibit the proliferation of certain cancer cell lines indicating their possible therapeutic utility for treating the corresponding cancer types. Cancer cell lines of interest and control normal lines, including CHO, HEK293, BA/F3, COLO205, PC3, DU145, MCF7, Panc1, ACHN, Hep G2, H460, K562, TT, U87-MG, CAOV-3, SK-MEL5, Karpas 299 and human multiple myeloma cell lines H929, MM1s, MM1r, UTMC2, CPM2, KMS11, My5, KMS12PE, My7, JJN3, KMS18, U266, SKMM2, RPMI-8226 are plated in white, clear-bottomed 384-well cell culture plates at 2500-5000 cells per well and supplied with dilutions of tested compounds After a desired period of time (typically 3 days), the number of viable cells is quantitated by using Cell Titer-Glo Luminescent Cell Viability Assay (Promega), a cell proliferation assay system based on detection of total amount of ATP present as a measure of cell metabolic activity. The plated cells are mixed with the Cell Titer-Glo developing reagent and counted in a luminescence multiwell plate reader according to the standard manufacturer's protocol to generate IC50 curves for cell proliferation inhibition. Results are typically reported as percent of growth (% viability =(OD72h(compound)−ODday0))/(OD72h(no compound)−ODday0). Alternatively, viable cells are quantitated by using the conventional colorimetric MTT assay. The MTT assay is based on the cleavage of the yellow tetrazolium salt MTT to purple formazan crystal by metabolic active cells. The formazan is then solubilized, and the concentration determined by optical density at 570 nm. The cells plated and incubated with a compound as described above are supplemented with the solution of MTT and incubated for 2-3 hours. The growth medium is removed and dimethyl sulfoxide is added into each well to dissolve the formazan. The absorbance is measured on an ELISA plate reader with a test wavelength of 570 nm and a background subtraction wavelength of 630 nm to obtain sample signal (OD570-OD630). […] The results are reported in terms of IC50 value for a particular compound and a cell line in the standard 3-day proliferation assay using Cell Titer-Glo. […] The results are reported in terms of IC50 value for a particular compound and a cell line in the standard 3-day proliferation assay using MTT assay.

IGF1R tyrosine kinase = target: T3, IGF1R tyrosine kinase (Homo sapiens, UniProt P08069); test: IGF1R tyrosine kinase assay (Kinase-Glo ATP depletion or PT66/PT100 AlphaScreen); conditions: biochemical tyrosine kinase assay
T3 construct: 6×His- or GST-tagged kinase domain fragments of the corresponding RTKs expressed in baculovirus system; host or cells: baculovirus system
T3 sequence (P08069 999-1274 limits assumed): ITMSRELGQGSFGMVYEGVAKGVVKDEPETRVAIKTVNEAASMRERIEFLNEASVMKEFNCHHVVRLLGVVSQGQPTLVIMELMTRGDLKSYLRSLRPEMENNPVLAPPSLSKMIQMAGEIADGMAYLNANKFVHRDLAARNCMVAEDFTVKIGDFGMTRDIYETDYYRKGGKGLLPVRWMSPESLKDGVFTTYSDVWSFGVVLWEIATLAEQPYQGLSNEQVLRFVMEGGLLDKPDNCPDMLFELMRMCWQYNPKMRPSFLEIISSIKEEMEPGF
Protocol: as §1, §2, §3

Alk = target: T4, Alk (Homo sapiens, UniProt Q9UM73); test: Tyrosine kinase assay (Kinase-Glo or AlphaScreen), Alk; conditions: biochemical tyrosine kinase assay
T4 construct: 6×His- or GST-tagged kinase domain fragments of the corresponding RTKs expressed in baculovirus system; host or cells: baculovirus system
T4 sequence (Q9UM73 1116-1392 limits assumed, species assumed): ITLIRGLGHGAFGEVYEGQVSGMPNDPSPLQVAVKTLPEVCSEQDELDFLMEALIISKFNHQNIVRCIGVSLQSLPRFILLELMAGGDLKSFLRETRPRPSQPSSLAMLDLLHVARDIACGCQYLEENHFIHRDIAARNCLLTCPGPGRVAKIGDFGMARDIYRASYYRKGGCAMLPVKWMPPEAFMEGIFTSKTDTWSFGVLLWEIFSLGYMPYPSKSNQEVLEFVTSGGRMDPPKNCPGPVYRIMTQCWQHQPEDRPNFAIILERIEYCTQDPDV
Protocol: as §1, §2, §3

Karpas-299 = test: Cell proliferation inhibition, Cell Titer-Glo, Karpas-299; type: cell-based; conditions: Homo sapiens; cell proliferation assay, Karpas-299 cells
Description: as §4

T1 sequence (P06213 1023-1298 limits assumed, species assumed): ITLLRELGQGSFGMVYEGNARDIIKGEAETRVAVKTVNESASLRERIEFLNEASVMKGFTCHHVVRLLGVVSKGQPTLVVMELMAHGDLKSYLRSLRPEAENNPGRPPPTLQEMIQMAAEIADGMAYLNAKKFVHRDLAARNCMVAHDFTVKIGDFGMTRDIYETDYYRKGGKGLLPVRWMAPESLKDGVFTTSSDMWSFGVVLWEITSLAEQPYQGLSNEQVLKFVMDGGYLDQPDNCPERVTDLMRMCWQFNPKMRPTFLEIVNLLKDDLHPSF

Row | SMILES | IC50 (InsR) | IC50 (Jak2) | IC50 (Ba/F3) | IC50 (IGF1R tyrosine kinase) | IC50 (Alk) | IC50 (Karpas-299)
1 | Cc1c(Cl)cccc1OC[C@H](O)CNc1cc[nH]c(=O)c1-c1nc2c(C)c3c(cc2[nH]1)C(=O)N(C1CCN(C)CC1)C3=O [compound 121] | 0.5 to 5 µM | 0.5 to 5 µM | 0.5 to 5 µM | 0.5 to 5 µM | 0.5 to 5 µM | 5 to 15 µM
2 | O=C1c2cc3nc(-c4c(NC[C@@H](O)c5cccc(Cl)c5)cc[nH]c4=O)[nH]c3cc2C(=O)N1CCc1c[nH]cn1 [compound 9] | 0.5 to 5 µM | 0.5 to 5 µM |  | 0.5 to 5 µM | 0.5 to 5 µM | 
3 | Cc1ccc(OC[C@H](O)CNc2cc[nH]c(=O)c2-c2nc3cc4c(cc3[nH]2)C(=O)N(CCCN2CCCC2)C4=O)c(C)c1 [compound 48] | < 0.5 µM | 0.5 to 5 µM | 0.5 to 5 µM | < 0.5 µM | 5 to 15 µM | 0.5 to 5 µM
4 | O=C1c2cc3nc(-c4c(NC[C@@H](O)c5cccc(Cl)c5)cc[nH]c4=O)[nH]c3cc2C(=O)N1CCc1cccnc1 [compound 27] | > 15 µM | > 15 µM |  | > 15 µM | > 15 µM | 
5 | O=C1CCCN1CCCN1C(=O)c2cc3nc(-c4c(NC[C@@H](O)c5cccc(Cl)c5)cc[nH]c4=O)[nH]c3cc2C1=O [compound 47] | 0.5 to 5 µM | 0.5 to 5 µM | 5 to 15 µM | 0.5 to 5 µM | 5 to 15 µM | 5 to 15 µM
6 | O=C1c2cc3nc(-c4c(NC[C@@H](O)c5cccc(Cl)c5)cc[nH]c4=O)[nH]c3cc2C(=O)N1CCCn1ccnc1 [compound 45] | 0.5 to 5 µM | 0.5 to 5 µM | 5 to 15 µM | 0.5 to 5 µM | 0.5 to 5 µM | 5 to 15 µM
7 | COCCN1CCC(CN2C(=O)c3cc4nc(-c5c(NC[C@@H](O)c6cccc(Cl)c6)cc[nH]c5=O)[nH]c4cc3C2=O)CC1 [compound 24] | < 0.5 µM | 0.5 to 5 µM |  | < 0.5 µM | 0.5 to 5 µM | 
8 | Cc1c2c(cc3[nH]c(-c4c(NC[C@@H](O)COc5c(F)ccc(Cl)c5F)cc[nH]c4=O)nc13)C(=O)N(C1CCN(C)CC1)C2=O [compound 122] | 0.5 to 5 µM | 0.5 to 5 µM | > 15 µM | < 0.5 µM | 5 to 15 µM | > 15 µM
9 | COCCCN1C(=O)c2cc3nc(-c4c(NC[C@@H](O)COc5ccc(C)cc5C)cc[nH]c4=O)[nH]c3cc2C1=O [compound 109] | > 15 µM | > 15 µM | > 15 µM | > 15 µM | > 15 µM | 0.5 to 5 µM
10 | COc1ccc2c(ccn2C[C@H](O)CNc2cc[nH]c(=O)c2-c2nc3cc4c(cc3[nH]2)CN(C2CCN(C)CC2)C4=O)c1 [compound 170] | 0.5 to 5 µM | 0.5 to 5 µM |  | 5 to 15 µM | 5 to 15 µM | 
11 | O=C1c2cc3nc(-c4c(NC[C@@H](O)c5cccc(Cl)c5)cc[nH]c4=O)[nH]c3cc2C(=O)N1C(CO)CO [compound 25] | < 0.5 µM | < 0.5 µM |  | < 0.5 µM | 5 to 15 µM | 

Source: patent US8063225B2, “Tricyclic compound derivatives useful in the treatment of neoplastic diseases, inflammatory disorders and immunomodulatory disorders” (Chembridge Corporation, priority 2006, dated 2011)
